Source: US20210223266A1, “METHODOLOGIES AND METHODS FOR MEASURING HIGHER MOLECULAR WEIGHT TRANSTHYRETIN OR EQUIVALENTS AS A CLINICAL BIOMARKER” (TTR Therapeutics, priority 2019, published 2021)

What was measured:
[1] = test system: TTR-assisted beta-amyloid (Aβ) transport; conditions: cited from earlier work
wtATTR-CM patients = conditions: p<0.001; cited from earlier work
TTR tetramer = target: T1, TTR tetramer (Homo sapiens, UniProt P02766); conditions: wtATTR-CM, off-label diflunisal; untreated 22 mg/dL (12-29); cited from earlier work
T1 construct: TTR tetramer levels were measured by immunoturbidimetric (IT) assays by Abbot Laboratories; from tissue; host or cells: blood samples of human wtATTR-CM patients (literature study, Circ Heart Fail 2018)

[2] = Tafamidis exposure in vitreous fluid / across blood-brain barrier after oral dosing; assay type: in vivo, human; conditions: long-term
Text: Multiple publications have reported reduced serum TTR levels, as measured by nephelometry or radial immunodiffusion (commercial kits readily available), in familial amyloid polyneuropathy patients with vitreous amyloidosis. “Prealbumin. A major constituent of vitreous amyloid,” Ophthalmology. 1987 July; 94(7):792-8. […] “Transthyretin deposition in the eye in the era of effective therapy for hereditary ATTRV30M amyloidosis,” https://doi.org/10.1080/13506129.2018.1554563.

HMW TTR = conditions: V30M ATTR patients; cited from earlier work
ATTR-CM patients = conditions: cited from earlier work
TTR [3] = target: TTR (Homo sapiens, UniProt P02766); assay: TTR levels in ATTR-CM patients on tafamidis 20 mg QD (Fx1B-201), immunoturbidimetric assays; assay type: in vivo; conditions: wtATTR-CM patients
Protocol: (§1) We believe these levels were measured using immunoturbidimetric assays performed by Genzyme Analytic Services.

TTR [4] = target: TTR (Homo sapiens, UniProt P02766, V142I); assay: as above; assay type: in vivo; conditions: V1221 mATTR-CM patients
Protocol: as §1

TTR [5] = assay: TTR levels at tafamidis 20 vs 80 mg, Phase 3 ATTR-ACT trial; assay type: in vivo, human; conditions: proprietary analysis
Protocol: We believe our discovery has relevance to the recently reported Phase 3 ATTR-ACT trial that readout positive mortality reduction with pooled tafamidis (20 mg and 80 mg QD) vs placebo. […] This is in line with one of Pfizer's expectations for the Phase 3 protocol (Maurer 2018, Phase 3 Final Protocol, 31 Jul. 2013. PF-06291826 Tafamidis Meglumine. B3461028) when looking at the plot of % TTR stabilization (y-axis) and molar ratio of tafamidis in FIG. 5: TTR levels (μM). We highlighted in red the wide ranges for pharmacodynamic effects related to 80 mg relative to 20 mg (in blue shade) to point out (1) potential for both dose-strengths to nearly overlap, (2) plotted data points were from Phase 1 data in healthy volunteers using liquid formulations of tafamidis (not capsule formulation given in Phase 3 ATTR-ACT trial), and (3) 80 mg PD expectations were calculated as a 4× multiple of 20 mg PD data, which could be important given PK variations may have not been optimized and could explain differences seen in Phase 3 ATTR-ACT clinical trial which tested 20 mg and 80 mg doses of tafamidis.

[6] = test system: ATTR patients with mutated TTR (V30M); conditions: cited from earlier work
[7] = oral tafamidis (presumably 20 mg QD) long-term; cited from earlier work
native TTR = conditions: Taf Group; no Taf Group 273.8 nM, non-ATTR controls 271.5 nM; not significantly different; cited from earlier work

SMILES: O=C(O)c1cc(-c2ccc(F)cc2F)cc(I)c1O [iodo-diflunisal]
- TTR-assisted beta-amyloid (Aβ) transport [1]: enhanced

SMILES: O=C(O)c1cc(-c2ccc(F)cc2F)ccc1O [diflunisal]
- one-year survival-rates vs untreated (wtATTR-CM patients): improved one-year survival-rates
- TTR levels after one year (TTR tetramer): 30 mg/dL

SMILES: O=C(O)c1ccc2nc(-c3cc(Cl)cc(Cl)c3)oc2c1 [tafamidis]
- blood-brain barrier crossing [2]: can cross the blood-brain barrier
- HMW TTR levels (HMW TTR): increase HMW TTR levels
- lower death-rates at month-30 compared to untreated (ATTR-CM patients; ATTR-CM patients, 20 mg tafamidis, long-term follow-up): ~40%
- rate at month-30 (77% vs 45% untreated) (ATTR-CM patients; ATTR-CM patients, 20 mg tafamidis): 77%
- reduction in death-rate at month-30 vs placebo (ATTR-CM patients; Phase 3 ATTR-ACT, pooled 20 mg QD and 80 mg QD, mATTR and wtATTR-CM): ~30%
- increase of TTR levels from baseline (TTR [3]): ~17%
- increase of TTR levels from baseline (TTR [4]): 50-60%
- differences in TTR levels between the two dose-strengths (TTR [5]): ~1 mg/dL
- ocular abnormalities ([6]; 20 mg/day, liver transplant 34%, supportive therapy 26%): 22%
- ocular abnormalities compared to untreated or liver transplantation ([6]; ATTR-PN, long-term treatment (>5 years), p=0.09 vs untreated, p=0.007 vs liver transplantation): lower ocular abnormalities
- drug levels in the vitreous fluid [7]: detectable drug levels
- Average [native TTR] in the CSF (native TTR): 265.8 nM
